Measured values reported in article PMC11903690 (Scientific Reports, 2025).

Legend:
Assay in all cases: microbe, parasite or virus in culture
Assay type in all cases: cell-based
[1] = test system: SARS-CoV-2 delta (B.1.617.2); conditions: for Selectivity index: SARS-CoV-2δ, HEK293TA cells; for EC50: Severe acute respiratory syndrome coronavirus 2
SARS-CoV-2gamma (P.1) = conditions: for Selectivity index: SARS-CoV-2γ, HEK293TA cells; for EC50: Severe acute respiratory syndrome coronavirus 2
[2] = test system: SARS-CoV-2 alpha (B.1.1.7); conditions: for Selectivity index: SARS-CoV-2α, HEK293TA cells; for EC50: Severe acute respiratory syndrome coronavirus 2

Structure (SMILES) | Selectivity index [1] | EC50 [1] | Selectivity index (SARS-CoV-2gamma (P.1)) | EC50 (SARS-CoV-2gamma (P.1)) | Selectivity index [2] | EC50 [2]
O=C(CCCCCCCCc1ccc(O)c(O)c1)c1c(O)cccc1O [Compound 1, Malabaricone C] | 3.4 | 1900 nM | 3.6 | 1700 nM | 2.6 | 1900 nM
CCC(CC)COC(=O)[C@H](C)N[P@](=O)(OC[C@H]1O[C@@](C#N)(c2ccc3c(N)ncnn23)[C@H](O)[C@@H]1O)Oc1ccccc1 [Remdesivir] |  | < 78 nM |  | < 78 nM |  | < 78 nM
CC(C)C(=O)OC[C@H]1O[C@@H](n2ccc(NO)nc2=O)[C@H](O)[C@@H]1O [Molnupiravir] | 13 | 450 nM | 13 | 520 nM | 14.7 | 400 nM
